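Results reflect a 48-hour exposure of cells in 96-well plates to compound at five concentrations. GI50 marks 50% less growth.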 Calls of active or inactive are those of the source. Rule as the data show it: active = GI50 up to about 1.1 µM and inactive = higher.
How the values were obtained:
Assay in all cases: NCI tumour cell line growth inhibition, 48 h
[1] = test system: K562
[2] = test system: CCRF-CEM
[3] = test system: KM-20L2
[4] = test system: LXFL 529
[5] = test system: MDA-N
[6] = test system: SN12C
[7] = test system: SR
[8] = test system: T47D
[9] = test system: A498
[10] = test system: OVCAR-8
[11] = test system: A549
[12] = test system: HOP-18
[13] = test system: Hs-578T
[14] = test system: PC-3
[15] = test system: HT-29
[16] = test system: NCI-H460
[17] = test system: NCI-H226
[18] = test system: KM12
[19] = test system: XF498
[20] = test system: SK-MEL-28
[21] = test system: EKVX
[22] = test system: RPMI-8226
[23] = test system: MOLT-4
[24] = test system: OVCAR-4
[25] = test system: SF-268
[26] = test system: SNB-19
[27] = test system: BT-549
[28] = test system: SNB-78
[29] = test system: SNB-75
[30] = test system: MDA-MB-435
[31] = test system: M14
[32] = test system: IGROV-1
[33] = test system: SW-620
[34] = test system: 786-0
[35] = test system: OVCAR-5
[36] = test system: ACHN
[37] = test system: HOP-62
[38] = test system: NCI-H23
[39] = test system: TK-10
[40] = test system: CAKI-1
[41] = test system: HCC 2998
[42] = test system: SK-OV-3
[43] = test system: UO-31
[44] = test system: DU-145
[45] = test system: LOX IMVI
[46] = test system: HCT-15
[47] = test system: DMS-273
[48] = test system: OVCAR-3
[49] = test system: DMS-114
[50] = test system: HOP-92
[51] = test system: HCT-116
[52] = test system: RXF 393
[53] = test system: M19-MEL
[54] = test system: MCF7
[55] = test system: HL-60
[56] = test system: UACC-257
[57] = test system: MDA-MB-231
[58] = test system: U-251
[59] = test system: COLO 205
[60] = test system: SF-539
[61] = test system: SF-295
[62] = test system: DLD-1
[63] = test system: NCI-H522
[64] = test system: RXF 631
[65] = test system: UACC-62
[66] = test system: Malme-3M
[67] = test system: SK-MEL-5
[68] = test system: SK-MEL-2

Measured: GI50

COC1CC(CC2CCC(C)C(C(C)C(=O)O)O2)OC2(OC(C)(C3CCC(C)(C4OC(C5OC(O)(CO)C(C)CC5C)CC4C)O3)CC2C)C1C (stereo not drawn)
inactive: [10] 1380 nM | [17] 1210 nM | [20] 1430 nM | [21] 2150 nM | [24] 6560 nM | [25] 1880 nM | [28] 1510 nM | [30] 1750 nM | [31] 1800 nM | [32] 1560 nM | [33] 1520 nM | [35] 8110 nM | [39] 5360 nM | [42] 7400 nM | [43] 1790 nM | [44] 3850 nM | [45] 1280 nM | [57] 1530 nM | [61] 1150 nM | [65] 1610 nM
active: [1] 50.2 nM | [2] 22.8 nM | [3] 124 nM | [4] 53.5 nM | [5] 757 nM | [6] 257 nM | [7] 63.4 nM | [8] 284 nM | [9] 220 nM | [11] 111 nM | [12] 284 nM | [13] 910 nM | [14] 552 nM | [15] 183 nM | [16] 402 nM | [18] 773 nM | [19] 42.3 nM | [22] 167 nM | [23] 347 nM | [26] 359 nM | [27] 300 nM | [29] 360 nM | [34] 1080 nM | [36] 964 nM | [37] 522 nM | [38] 295 nM | [40] 906 nM | [41] 186 nM | [47] 71.9 nM | [48] 40.6 nM | [49] < 15.1 nM | [50] 1070 nM | [51] 759 nM | [52] < 10.9 nM | [53] 239 nM | [54] 150 nM | [55] 36.3 nM | [56] 57.8 nM | [58] 83.6 nM | [59] 116 nM | [60] 190 nM | [62] 510 nM | [63] 21.7 nM | [64] 73.8 nM | [66] 92.3 nM | [67] 156 nM | [68] 646 nM
1850 nM: [46]
